Reference: article PMC4854315, “Discovery of a novel allosteric inhibitor-binding site in ERK5: comparison with the canonical kinase hinge ATP-binding site” (Acta Crystallographica. Section D, Structural Biology, 2016)

What was measured:
Test in all cases: Z'-LYTE kinase panel
Type in all cases: biochemical
PHKG1 = biological target: T1, PHKG1 (Homo sapiens, UniProt Q16816)
T1 construct: purchased ThermoFisher (SelectScreen, Z'-LYTE)
Outline: (§1)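 Readout is percentage inhibition, obtained from the standard Z′-LYTE protocol with test compound present at 10 µM; screened within a panel of 225 kinases.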

CSNK2A2 (CK2 alpha 2) = biological target: T2, CSNK2A2 (CK2 alpha 2) (Homo sapiens, UniProt P19784)
T2 construct: purchased ThermoFisher (SelectScreen, Z'-LYTE)
T2 sequence (P19784 whole entry): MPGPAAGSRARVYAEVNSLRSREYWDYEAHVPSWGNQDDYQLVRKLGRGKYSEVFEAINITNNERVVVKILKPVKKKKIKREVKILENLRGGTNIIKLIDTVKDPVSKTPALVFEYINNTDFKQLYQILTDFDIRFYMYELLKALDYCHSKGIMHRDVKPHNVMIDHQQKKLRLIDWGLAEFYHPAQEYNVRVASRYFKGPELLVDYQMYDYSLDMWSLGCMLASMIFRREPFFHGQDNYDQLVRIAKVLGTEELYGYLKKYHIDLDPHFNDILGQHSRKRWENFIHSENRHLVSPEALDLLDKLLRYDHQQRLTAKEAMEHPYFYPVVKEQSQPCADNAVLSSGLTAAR
Outline: as §1

IKBKE (IKK epsilon) = biological target: T3, IKBKE (IKK epsilon) (Homo sapiens, UniProt Q14164)
T3 construct: purchased ThermoFisher (SelectScreen, Z'-LYTE)
T3 sequence (Q14164 1-716): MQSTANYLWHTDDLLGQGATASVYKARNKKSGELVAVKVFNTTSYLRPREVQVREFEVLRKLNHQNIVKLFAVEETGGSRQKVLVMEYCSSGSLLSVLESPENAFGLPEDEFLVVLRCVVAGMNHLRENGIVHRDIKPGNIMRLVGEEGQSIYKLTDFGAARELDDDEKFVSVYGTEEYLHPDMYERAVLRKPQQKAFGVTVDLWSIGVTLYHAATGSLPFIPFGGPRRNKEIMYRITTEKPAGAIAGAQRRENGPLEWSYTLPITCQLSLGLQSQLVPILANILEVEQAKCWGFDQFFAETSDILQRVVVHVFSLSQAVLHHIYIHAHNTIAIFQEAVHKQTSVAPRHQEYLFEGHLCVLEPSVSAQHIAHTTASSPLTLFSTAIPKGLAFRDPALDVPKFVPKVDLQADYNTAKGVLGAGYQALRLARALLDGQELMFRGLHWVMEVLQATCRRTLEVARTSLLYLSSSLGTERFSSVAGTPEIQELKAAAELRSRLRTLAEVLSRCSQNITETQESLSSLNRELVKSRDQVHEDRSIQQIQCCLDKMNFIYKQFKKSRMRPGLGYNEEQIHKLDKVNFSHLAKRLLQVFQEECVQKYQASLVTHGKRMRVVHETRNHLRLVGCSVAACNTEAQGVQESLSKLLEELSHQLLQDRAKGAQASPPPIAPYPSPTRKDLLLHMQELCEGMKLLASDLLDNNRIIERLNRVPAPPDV
Outline: as §1

PTK6 (Brk) = biological target: T4, PTK6 (Brk) (Homo sapiens, UniProt Q13882)
T4 construct: purchased ThermoFisher (SelectScreen, Z'-LYTE)
T4 sequence (Q13882 whole entry): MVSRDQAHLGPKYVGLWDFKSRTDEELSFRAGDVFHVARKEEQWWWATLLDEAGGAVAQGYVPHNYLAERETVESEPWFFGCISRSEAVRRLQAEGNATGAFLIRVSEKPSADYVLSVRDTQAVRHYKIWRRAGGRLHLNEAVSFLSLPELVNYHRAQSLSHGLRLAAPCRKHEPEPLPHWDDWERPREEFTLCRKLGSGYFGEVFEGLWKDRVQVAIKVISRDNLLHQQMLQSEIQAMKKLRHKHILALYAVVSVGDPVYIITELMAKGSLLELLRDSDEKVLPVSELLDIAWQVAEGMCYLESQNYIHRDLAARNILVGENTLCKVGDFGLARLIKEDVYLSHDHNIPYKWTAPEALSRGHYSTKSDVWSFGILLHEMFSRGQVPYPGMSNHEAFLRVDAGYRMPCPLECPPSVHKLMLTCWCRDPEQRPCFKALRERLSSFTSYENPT
Outline: as §1

PRKCN (PKD3) = biological target: T5, PRKCN (PKD3) (Homo sapiens, UniProt O94806)
T5 construct: purchased ThermoFisher (SelectScreen, Z'-LYTE)
T5 sequence (O94806 1-890): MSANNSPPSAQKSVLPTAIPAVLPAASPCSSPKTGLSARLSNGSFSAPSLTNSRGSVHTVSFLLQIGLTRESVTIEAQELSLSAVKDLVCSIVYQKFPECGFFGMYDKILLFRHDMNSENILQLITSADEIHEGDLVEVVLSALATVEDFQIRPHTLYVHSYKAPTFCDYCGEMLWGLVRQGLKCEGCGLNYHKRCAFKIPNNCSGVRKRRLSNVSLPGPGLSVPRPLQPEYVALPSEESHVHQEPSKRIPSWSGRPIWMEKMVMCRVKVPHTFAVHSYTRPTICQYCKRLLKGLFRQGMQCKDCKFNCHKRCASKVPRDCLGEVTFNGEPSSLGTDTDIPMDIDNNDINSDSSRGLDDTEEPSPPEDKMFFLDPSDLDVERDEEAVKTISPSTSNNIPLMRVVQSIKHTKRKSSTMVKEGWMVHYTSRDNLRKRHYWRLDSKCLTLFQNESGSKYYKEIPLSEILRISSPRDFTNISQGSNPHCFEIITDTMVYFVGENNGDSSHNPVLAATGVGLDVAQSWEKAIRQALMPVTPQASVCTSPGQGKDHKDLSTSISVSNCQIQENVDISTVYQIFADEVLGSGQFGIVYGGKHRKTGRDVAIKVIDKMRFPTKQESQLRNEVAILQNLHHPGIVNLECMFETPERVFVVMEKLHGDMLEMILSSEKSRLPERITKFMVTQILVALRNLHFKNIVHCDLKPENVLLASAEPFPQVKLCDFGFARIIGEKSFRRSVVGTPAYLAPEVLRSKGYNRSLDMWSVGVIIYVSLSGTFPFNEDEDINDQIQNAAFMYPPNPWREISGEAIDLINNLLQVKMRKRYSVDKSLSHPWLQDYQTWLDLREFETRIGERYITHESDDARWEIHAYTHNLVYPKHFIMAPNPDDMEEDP
Outline: as §1

MET (cMet) = biological target: T6, MET (cMet) (Homo sapiens, UniProt P08581)
T6 construct: purchased ThermoFisher (SelectScreen, Z'-LYTE)
Outline: as §1

DNA-PK = biological target: T7, DNA-PK (Homo sapiens, UniProt P78527)
T7 construct: purchased ThermoFisher (SelectScreen, Z'-LYTE)
Outline: as §1

IRAK4 = biological target: T8, IRAK4 (Homo sapiens, UniProt Q9NWZ3)
T8 construct: purchased ThermoFisher (SelectScreen, Z'-LYTE)
T8 sequence (Q9NWZ3 1-460): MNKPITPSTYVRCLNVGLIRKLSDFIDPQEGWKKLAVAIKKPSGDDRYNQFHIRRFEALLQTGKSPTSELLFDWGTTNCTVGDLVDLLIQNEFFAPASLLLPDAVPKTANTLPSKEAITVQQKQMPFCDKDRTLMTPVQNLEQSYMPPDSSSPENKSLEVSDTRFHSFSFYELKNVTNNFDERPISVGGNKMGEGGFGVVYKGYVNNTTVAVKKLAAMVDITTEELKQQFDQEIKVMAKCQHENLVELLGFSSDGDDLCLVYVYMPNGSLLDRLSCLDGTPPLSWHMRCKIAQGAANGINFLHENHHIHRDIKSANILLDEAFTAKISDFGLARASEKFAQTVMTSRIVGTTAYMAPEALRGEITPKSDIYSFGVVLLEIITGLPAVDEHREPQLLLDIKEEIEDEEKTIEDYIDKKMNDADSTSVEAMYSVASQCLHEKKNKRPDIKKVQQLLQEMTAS
Outline: as §1

NTRK1 (TRKA) = biological target: T9, NTRK1 (TRKA) (Homo sapiens, UniProt P04629)
T9 construct: purchased ThermoFisher (SelectScreen, Z'-LYTE)
T9 sequence (P04629 33-796): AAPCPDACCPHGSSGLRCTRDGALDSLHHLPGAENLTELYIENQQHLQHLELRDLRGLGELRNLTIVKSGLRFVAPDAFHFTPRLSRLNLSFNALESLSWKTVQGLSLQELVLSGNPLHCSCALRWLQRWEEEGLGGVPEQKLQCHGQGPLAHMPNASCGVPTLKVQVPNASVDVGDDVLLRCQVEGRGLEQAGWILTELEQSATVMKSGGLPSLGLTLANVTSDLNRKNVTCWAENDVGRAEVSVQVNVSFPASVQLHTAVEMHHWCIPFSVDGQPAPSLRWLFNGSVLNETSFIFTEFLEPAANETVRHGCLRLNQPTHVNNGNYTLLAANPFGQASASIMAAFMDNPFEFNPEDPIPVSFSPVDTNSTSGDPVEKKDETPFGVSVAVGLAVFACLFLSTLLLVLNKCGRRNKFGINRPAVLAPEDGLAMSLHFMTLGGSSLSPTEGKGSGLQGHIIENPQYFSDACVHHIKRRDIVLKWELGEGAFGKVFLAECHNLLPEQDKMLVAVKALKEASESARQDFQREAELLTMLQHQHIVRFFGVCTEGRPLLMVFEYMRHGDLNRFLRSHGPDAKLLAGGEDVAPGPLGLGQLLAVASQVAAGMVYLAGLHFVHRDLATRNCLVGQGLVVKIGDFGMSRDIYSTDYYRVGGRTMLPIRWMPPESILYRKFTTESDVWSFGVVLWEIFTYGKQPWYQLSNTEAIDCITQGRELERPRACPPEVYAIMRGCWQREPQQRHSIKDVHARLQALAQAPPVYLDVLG
Outline: as §1

MYLK2 (skMLCK) = biological target: T10, MYLK2 (skMLCK) (Homo sapiens, UniProt Q9H1R3)
T10 construct: purchased ThermoFisher (SelectScreen, Z'-LYTE)
Outline: as §1

SRMS (Srm) = biological target: T11, SRMS (Srm) (Homo sapiens, UniProt Q9H3Y6)
T11 construct: purchased ThermoFisher (SelectScreen, Z'-LYTE)
T11 sequence (Q9H3Y6 whole entry): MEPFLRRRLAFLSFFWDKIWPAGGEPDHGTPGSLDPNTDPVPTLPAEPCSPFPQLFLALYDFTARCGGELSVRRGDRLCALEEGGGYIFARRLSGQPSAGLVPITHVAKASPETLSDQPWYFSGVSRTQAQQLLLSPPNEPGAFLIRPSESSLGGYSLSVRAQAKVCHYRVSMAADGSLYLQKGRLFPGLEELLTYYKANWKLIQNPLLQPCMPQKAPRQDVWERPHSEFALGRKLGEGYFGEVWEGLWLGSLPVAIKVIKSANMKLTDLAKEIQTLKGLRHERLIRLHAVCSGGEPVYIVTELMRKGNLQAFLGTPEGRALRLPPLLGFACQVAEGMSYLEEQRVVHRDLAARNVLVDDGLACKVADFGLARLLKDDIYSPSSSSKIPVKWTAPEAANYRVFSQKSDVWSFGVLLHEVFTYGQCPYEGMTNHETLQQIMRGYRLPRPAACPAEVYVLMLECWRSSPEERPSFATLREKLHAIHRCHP
Outline: as §1

LYN A = biological target: T12, LYN A (Homo sapiens, UniProt P07948)
T12 construct: purchased ThermoFisher (SelectScreen, Z'-LYTE)
T12 sequence (P07948 whole entry): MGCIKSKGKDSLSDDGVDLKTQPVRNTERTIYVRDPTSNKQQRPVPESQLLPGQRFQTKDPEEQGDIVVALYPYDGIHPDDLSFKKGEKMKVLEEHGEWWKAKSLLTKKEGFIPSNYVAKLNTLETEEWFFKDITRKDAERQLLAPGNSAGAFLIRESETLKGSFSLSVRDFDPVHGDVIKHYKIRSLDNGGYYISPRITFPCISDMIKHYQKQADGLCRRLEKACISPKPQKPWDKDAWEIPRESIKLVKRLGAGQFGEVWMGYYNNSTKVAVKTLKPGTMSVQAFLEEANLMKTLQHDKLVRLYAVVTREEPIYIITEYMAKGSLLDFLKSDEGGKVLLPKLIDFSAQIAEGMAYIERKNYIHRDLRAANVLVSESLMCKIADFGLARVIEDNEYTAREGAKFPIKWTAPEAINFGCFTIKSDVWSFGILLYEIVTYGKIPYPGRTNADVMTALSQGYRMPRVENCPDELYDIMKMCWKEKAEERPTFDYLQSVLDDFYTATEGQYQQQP
Outline: as §1

FER = biological target: T13, FER (Homo sapiens, UniProt P16591)
T13 construct: purchased ThermoFisher (SelectScreen, Z'-LYTE)
T13 sequence (P16591 whole entry): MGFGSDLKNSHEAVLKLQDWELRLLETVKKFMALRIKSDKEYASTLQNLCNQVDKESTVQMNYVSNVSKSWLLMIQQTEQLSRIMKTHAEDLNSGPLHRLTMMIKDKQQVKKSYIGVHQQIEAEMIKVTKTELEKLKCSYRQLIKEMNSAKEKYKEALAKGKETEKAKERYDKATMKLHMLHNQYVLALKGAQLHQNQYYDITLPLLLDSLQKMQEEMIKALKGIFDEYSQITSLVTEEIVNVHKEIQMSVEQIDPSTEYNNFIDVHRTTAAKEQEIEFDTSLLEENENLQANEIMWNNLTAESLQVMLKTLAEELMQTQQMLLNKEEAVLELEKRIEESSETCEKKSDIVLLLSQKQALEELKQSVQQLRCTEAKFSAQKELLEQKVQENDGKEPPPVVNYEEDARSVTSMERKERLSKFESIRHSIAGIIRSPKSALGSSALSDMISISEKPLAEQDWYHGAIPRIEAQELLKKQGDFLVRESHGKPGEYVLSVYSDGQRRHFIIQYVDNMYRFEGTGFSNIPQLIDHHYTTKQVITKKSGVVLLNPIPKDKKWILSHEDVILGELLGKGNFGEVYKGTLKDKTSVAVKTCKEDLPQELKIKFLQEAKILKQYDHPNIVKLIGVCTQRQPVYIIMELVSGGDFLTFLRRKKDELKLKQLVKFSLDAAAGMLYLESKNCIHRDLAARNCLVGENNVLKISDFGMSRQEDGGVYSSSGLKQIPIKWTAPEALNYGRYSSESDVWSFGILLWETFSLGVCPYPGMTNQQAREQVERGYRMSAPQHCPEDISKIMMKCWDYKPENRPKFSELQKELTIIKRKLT
Outline: as §1

RPS6KA1 (RSK1) = biological target: T14, RPS6KA1 (RSK1) (Homo sapiens, UniProt Q15418)
T14 construct: purchased ThermoFisher (SelectScreen, Z'-LYTE)
Outline: as §1

FLT1 (VEGFR1) = biological target: T15, FLT1 (VEGFR1) (Homo sapiens, UniProt P17948)
T15 construct: purchased ThermoFisher (SelectScreen, Z'-LYTE)
T15 sequence (P17948 27-1338): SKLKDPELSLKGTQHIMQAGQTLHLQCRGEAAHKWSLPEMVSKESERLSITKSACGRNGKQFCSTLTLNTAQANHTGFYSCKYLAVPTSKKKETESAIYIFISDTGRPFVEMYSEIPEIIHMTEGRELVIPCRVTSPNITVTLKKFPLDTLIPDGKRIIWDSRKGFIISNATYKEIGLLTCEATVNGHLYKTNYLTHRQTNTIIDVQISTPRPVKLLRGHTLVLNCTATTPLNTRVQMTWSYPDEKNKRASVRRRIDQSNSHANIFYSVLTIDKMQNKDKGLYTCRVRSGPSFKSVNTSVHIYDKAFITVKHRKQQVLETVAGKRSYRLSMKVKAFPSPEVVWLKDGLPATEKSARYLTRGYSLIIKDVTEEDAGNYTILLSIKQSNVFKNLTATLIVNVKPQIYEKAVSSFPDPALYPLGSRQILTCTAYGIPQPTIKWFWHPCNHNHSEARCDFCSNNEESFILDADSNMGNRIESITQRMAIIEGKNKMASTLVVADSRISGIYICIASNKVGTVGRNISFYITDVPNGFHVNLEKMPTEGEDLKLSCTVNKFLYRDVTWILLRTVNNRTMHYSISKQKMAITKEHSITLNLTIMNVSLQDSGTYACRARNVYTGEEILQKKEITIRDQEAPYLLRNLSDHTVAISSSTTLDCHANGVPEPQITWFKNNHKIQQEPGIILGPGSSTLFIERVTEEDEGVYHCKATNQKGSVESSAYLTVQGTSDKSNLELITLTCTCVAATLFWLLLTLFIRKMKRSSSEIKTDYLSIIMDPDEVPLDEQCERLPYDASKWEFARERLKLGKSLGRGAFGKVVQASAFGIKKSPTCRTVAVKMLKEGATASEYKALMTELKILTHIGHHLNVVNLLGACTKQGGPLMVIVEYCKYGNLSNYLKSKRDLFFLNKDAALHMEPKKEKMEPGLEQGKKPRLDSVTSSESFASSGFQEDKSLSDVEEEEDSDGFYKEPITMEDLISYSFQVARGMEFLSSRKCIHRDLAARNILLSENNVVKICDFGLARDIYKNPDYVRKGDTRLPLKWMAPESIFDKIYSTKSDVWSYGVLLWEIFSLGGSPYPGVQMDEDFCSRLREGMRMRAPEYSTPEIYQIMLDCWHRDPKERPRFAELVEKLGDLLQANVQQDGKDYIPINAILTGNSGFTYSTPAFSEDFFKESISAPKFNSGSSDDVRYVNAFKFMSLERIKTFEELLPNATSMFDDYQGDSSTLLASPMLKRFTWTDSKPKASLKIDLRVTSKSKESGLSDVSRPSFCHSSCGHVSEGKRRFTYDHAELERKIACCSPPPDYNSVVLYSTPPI
Outline: as §1

Row | Molecule | inhibition at 10 µM (PHKG1) [%] | inhibition at 10 µM (CSNK2A2 (CK2 alpha 2)) [%] | inhibition at 10 µM (IKBKE (IKK epsilon)) [%] | inhibition at 10 µM (PTK6 (Brk)) [%] | inhibition at 10 µM (PRKCN (PKD3)) [%] | inhibition at 10 µM (MET (cMet)) [%] | inhibition at 10 µM (DNA-PK) [%] | inhibition at 10 µM (IRAK4) [%] | inhibition at 10 µM (NTRK1 (TRKA)) [%] | inhibition at 10 µM (MYLK2 (skMLCK)) [%] | inhibition at 10 µM (SRMS (Srm)) [%] | inhibition at 10 µM (LYN A) [%] | inhibition at 10 µM (FER) [%] | inhibition at 10 µM (RPS6KA1 (RSK1)) [%] | inhibition at 10 µM (FLT1 (VEGFR1)) [%] | also measured
1 | Cc1ncc(-c2nc(Nc3ccc(C(=O)NCCN4CCCCC4)cc3)ncc2F)n1C(C)C [Compound 3] | 100 | 77 | 33 | 61 | 87 | 85 | 33 | 71 | 76 | 78 | 20 | 88 | 105 | 69 | 73 | 
2 | Cc1cc(Nc2nc(N)nn2C(=O)NC(C)C)ccc1Cl [Compound 5] | -5.38 | 1.46 | 9 | 5.47 | 11 | 25 | 13 | -2.32 | 36 | -0.775 | 2.26 | 25 | 22 | 36 | 34 | 
3 | XMD8-92 [Compound 2, reference compound] |  |  |  |  |  |  |  |  |  |  |  |  |  |  |  | PHKG1 % Inhibition (PHKG1; 10 µM compound, ATP Km app): 12%; CSNK2A2 (CK2 alpha 2) % Inhibition (CSNK2A2 (CK2 alpha 2); 10 µM compound, ATP Km app): -1.72%; IKBKE (IKK epsilon) % Inhibition (IKBKE (IKK epsilon); 10 µM compound, ATP Km app): 4.66%; PTK6 (Brk) % Inhibition (PTK6 (Brk); 10 µM compound, ATP Km app): 14%; PRKCN (PKD3) % Inhibition (PRKCN (PKD3); 10 µM compound, ATP Km app): 18%; MET (cMet) % Inhibition (MET (cMet); 10 µM compound, ATP Km app): 57%; DNA-PK % Inhibition (DNA-PK; 10 µM compound, ATP Km app): 38%; IRAK4 % Inhibition (IRAK4; 10 µM compound, ATP Km app): -9%; NTRK1 (TRKA) % Inhibition (NTRK1 (TRKA); 10 µM compound, ATP Km app): 43%; MYLK2 (skMLCK) % Inhibition (MYLK2 (skMLCK); 10 µM compound, ATP Km app): 42%; SRMS (Srm) % Inhibition (SRMS (Srm); 10 µM compound, ATP Km app): 21%; LYN A % Inhibition (LYN A; 10 µM compound, ATP Km app): 66%; FER % Inhibition (FER; 10 µM compound, ATP Km app): 79%; RPS6KA1 (RSK1) % Inhibition (RPS6KA1 (RSK1); 10 µM compound, ATP Km app): 5.45%; FLT1 (VEGFR1) % Inhibition (FLT1 (VEGFR1); 10 µM compound, ATP Km app): -1.58%
